Reference: patent US10774082B2, “Quinazoline compound” (Astellas Pharma Inc., priority 2017, dated 2020)

Tested on: NCI-H1373 tumor
Experiment: Antitumor effect in NCI-H1373 tumor-bearing mouse
Format: in vivo
Conditions: 10 mg/kg orally once a day for 13 or 14 days
Method: Evaluation of Antitumor Effect in Human KRAS G12C Mutation Positive Non-Small Cell Lung Cancer Strain NCI-H1373 Tumor-Bearing Mouse
A cell suspension prepared per 3.0×10^7/mL by suspending NCI-H1373 cells in PBS, an equivalent amount of Matrigel (Becton, Dickinson and Company) was added thereto, and the cell suspension was subcutaneously planted in a volume of 100 μL to male nude mice of 4-5 weeks old (CAnN.Cg-Foxnlnu/CrlCrlj (nu/nu), Charles River Laboratories Japan, Inc.). Approximately 2 weeks after planting, groups were divided so that tumor volume and body weight between the groups were almost equivalent to each other, and administration of the test compound was started from the next day. The test was conducted with five mice in a solvent group and five mice in a test compound administration group, and an aqueous solution of 6% 2-hydroxypropyl-β-cyclodextrin (Sigma-Aldrich Co. LLC) was orally administered to the solvent group and an aqueous solution of 6% 2-hydroxypropyl-β-cyclodextrin which the test compound (10 or 40 mg/kg) was mixed was orally administered to the test compound administration group. The administration was performed once a day for 13 or 14 days, and tumor diameter and volume were measured twice a week. For calculation of tumor volume, the following formula was used. [tumor volume (mm^3)]=[major diameter (mm) of tumor]×[minor diameter (mm) of tumor]^2×0.5
The tumor growth inhibition rate (%) by the test compound was calculated by setting the tumor volume of the test compound administration group on the day before the administration started as 100% inhibition, and the tumor volume of the solvent group on the last day of administration as 0% inhibition. In addition, in a case where the tumor volume of the test compound administration group was lower than the tumor volume on the day before the administration started, the tumor regression rate (%) of the test compound was calculated by setting the tumor volume on the day before the administration started as 0% regression, and the tumor volume 0 as 100% regression.

Structure (SMILES)	Antitumor effect: tumor regression rate [% regression]
C=CC(=O)N1CC2(CCN(c3nc(OC4CCN(CCOC)CC4)nc4c(OCC(F)(F)F)c(-c5c(C)ccc6[nH]ncc56)c(C5CC5)cc34)CC2)C1 [Example 35]	72
C=CC(=O)N1CC2(CCN(c3nc(OC4CCN(CCOCC)CC4)nc4c(OCC(F)(F)F)c(-c5c(C)ccc6[nH]ncc56)c(C=C)cc34)CC2)C1 [Example 37]	58
C=CC(=O)N1CC2(CCN(c3nc(OC4CCN(CC(C)(C)O)CC4)nc4c(OCC(F)(F)F)c(-c5c(C)ccc6[nH]ncc56)c(C=C)cc34)CC2)C1 [Example 40]	15
